Test results as given in ChEMBL document CHEMBL1146443, “New indole derivatives with free radical scavenging activity from Agrocybe cylindracea” (J Nat Prod, 1997).
Converted amounts (≈) assume the structure as drawn. The source made the active and inactive calls. The rule behind the calls is not given here.

Columns and labels:
[1] = tested on: Liver microsomes; assay: Inhibition of lipid peroxidation in rat liver microsome; format: functional
[2] = tested on: Liver microsomes; assay: Inhibition of lipid peroxidation in rat liver microsome at 50 ug/mL; format: functional

Compound	IC50 [1] [µg/mL]	Activity [2]
NC(=O)Cc1c[nH]c2cc(O)ccc12	3.9 (≈ 20.5 µM)	–
O=Cc1c[nH]c2cc(O)ccc12	4.1 (≈ 25.4 µM)	–
O=C(O)Cc1c[nH]c2ccccc12	–	inactive
